# Values quoted from earlier work, collected in patent publication US10064816B2, “Treatment of sexual dysfunction” (ReJoy, priority 2015, dated 2018).
# Test system: arrector pili muscle
# Settings: 1% w/v, iontophoresis
smiles,measurement,value
CNC[C@H](O)c1cccc(O)c1 [phenylephrine],piloerection on the forearm,can activate the piloerection
